Laboratory results published in patent US10603357B2, “Therapeutic TREM-1 peptides” (Universite de Lorraine, priority 2004, dated 2020).

Test system: human monocytes
Test: in vitro stimulation of monocytes: TNF-α, IL-1β and sTREM-1 release
Assay type: cell-based
Conditions: P5 or control peptide 10 to 100 ng/mL, rIL-10 500 U/mL
Experimental: For cell activation, primary monocytes were cultured in 24-well flat-bottom tissue culture plates in the presence of LPS (1 μg/mL). In some experiments this stimulus was provided in combination with P5 (10 to 100 ng/mL), control peptide (10 to 100 ng/mL) or rIL-10 (500 U/mL). To activate monocytes through TREM-1, an agonist anti-TREM-1 mAb (10 μg/mL) was added as indicated. Cell-free supernatants were analysed for production of TNF-α, IL-1β. and sTREM-1 by ELISA or immunodot. All experiments were performed in triplicate and data are expressed as means (SEM). • a: Media • b: P5 10 ng/mL • c: Anti-TREM-1 • d: LPS • e: LPS+Anti-TREM-1 • f: LPS+P5 10 ng/mL • g: LPS+P5 50 ng/mL • h: LPS+P5 100 ng/mL • i: LPS+IL10
Ten mL of peripheral blood samples were collected on EDTA-K from 5 healthy volunteer donors originating from laboratory staff. After dilution in RPMI (Life Technologies, Grand Island, N.Y.) v/v, blood was centrifuged for 30 min at room temperature over a Ficoll gradient (Amersham Pharmacia, Uppsala, Sweden) to isolate PBMC. The cells recovered above the gradient were washed and counted. In order to deplete the suspensions of lymphocytes, cells were then plated in 24-well flat-bottom tissue culture plates (Corning, Corning, N.Y.) at a concentration of 5×10^6/mL and allowed to adhere during 2 hours at 37° C. The resulting lymphocyte suspension was discarded and the adhering monocytic cells were maintained in a 5% CO2 incubator at 37° C. in complete medium (RPMI 1640, 0.1 mM sodium pyruvate, […], 50 μg/mL Streptomycin; Life Technologies) supplemented with 10% FCS (Invitrogen, Cergy, France).
For activation, monocytes were cultured in the presence of E. coli LPS (0111:B4, 1 μg/mL, Sigma-Aldrich, La Verpillière, France). Cell viability was assessed by trypan blue exclusion and by measuring lactate dehydrogenase release. In some experiments, this stimulus was given in combination with TNF-α (5 to 100 ng/mL, R&D Systems, Lille, France), IL-1β (5 to 100 ng/mL, R&D Systems), rIFN-γ (up to 100 U/mL, R&D Systems), rIL-10 (500 U/ml, R&D Systems) or up to 100 ng/mL of P5 or control peptide.
In order to activate monocytes through TREM-1, an anti-TREM-1 agonist monoclonal antibody (R&D Systems) was added as follows: flat-bottom plates were precoated with 10 μg/mL anti-TREM-1 per well. After thorough washing in phosphate buffered saline (PBS), the monocyte suspensions were added at a similar concentration as above. Some experiments were performed in the presence of protease inhibitors (PMSF and Protease Cocktail Inhibitor; Invitrogen). Cell-free supernatants were assayed for the production of TNF-α and IL-1β by ELISA according to the recommendations of the manufacturer (BD Biosciences, San Diego, USA). To address the effect of P5 on NF-κB activity in monocytes, an ELISA-based assay was performed (BD Mercury™ Transfactor Kit, BD Biosciences). Monocytes were cultured for 24 hours in the presence of E. coli LPS (O111:B4, 1 μg/mL), and/or an agonist anti-TREM-1 monoclonal antibody (10 μg/mL), and/or P5 (100 ng/mL). Whole-cell extracts were then prepared and levels of NF-κB p50 and p65 were determined according to the recommendations of the manufacturer. All experiments were performed in triplicate and data are expressed as means (SEM). Identification and Quantitation of sTREM-1 Release
Primary monocytes suspensions were cultured as described above. The cells were treated with E. coli LPS (0111:B4, 1 μg/mL) for 24 hours at 37° C. Cell-conditioned medium was submitted to Western-blotting using an anti-TREM-1 monoclonal antibody (R&D Systems) in order to confirm the presence of 27 kDa material recognized by anti-TREM-1. Soluble TREM-1 levels were measured by assessing the optical intensity of bands on immunodots by means of a reflectance scanner and the Quantity One Quantitation Software (Bio-Rad, Cergy, France) as reported elsewhere (18). […]

LQVTDSGLYRCVIYHPP [P5]
TNF-α and IL-1β production (release of inflammatory cytokines) in monocyte supernatant (LPS 1 μg/mL or LPS + anti-TREM-1 mAb): reduced, in a concentration-dependent manner | release of sTREM-1 from monocytes cultured with LPS (LPS 1 μg/mL): increased
